Measured values taken from paper PMC11396667, “Design, Synthesis, and Anticancer and Antibacterial Activities of Quinoline-5-Sulfonamides” (Molecules, 2024).
≈ marks a conversion by molar mass, not a printed value.

Assays:
[1] = system: Staphylococcus aureus ATCC 29213; assay: MIC, microtitration broth method, SA; assay type: cell-based; settings: ATCC29213, 24 h, 37 °C, CaMH broth
Description: (§1) Since there is a general decrease in immunity during the treatment of oncological patients, i.e., patients are more susceptible to infectious diseases, it is advantageous if anticancer agents show antimicrobial properties at the same time. Therefore, the effects of the compounds were also investigated against Gram-positive bacteria. For this purpose, the susceptible collection strains of aerobic Staphylococcus aureus ATCC 29213 and facultatively aerobic Enterococcus faecalis ATCC 29212 and resistant clinical isolates of methicillin-resistant S. aureus (MRSA) SA 3202, SA 630 carrying the mecA gene, and vancomycin-resistant isolates of E. faecalis (VRE) 342B, 368, and 725B carrying the vanA gene were selected. Thus, the selection of the studied bacterial strains was adopted following the CLSI ([…]) international reference methodologies.
(§2) The in vitro antibacterial activity of the synthesized compounds was evaluated against representatives of multidrug-resistant bacteria, […] clinical isolates of methicillin-resistant S. aureus: clinical isolates of human origin, MRSA SA 3202, and MRSA SA 630 (National Institute of Public Health, Prague, Czech Republic), carrying the mecA gene. These two clinical isolates were classified as vancomycin-susceptible (but with a higher MIC of vancomycin equal to 2 μg/mL (VA2-MRSA). Vancomycin- and methicillin-susceptible S. aureus ATCC 29213 and vancomycin-susceptible Enterococcus faecalis ATCC 29212, obtained from the American Type Culture Collection, were used as the reference and quality control strains. Three vanA gene-carrying vancomycin-resistant isolates of E. faecalis (VRE 342B, VRE 368, VRE 725B) (Department of Infectious Diseases and Microbiology, Faculty of Veterinary Medicine, University of Veterinary Sciences Brno, Czech Republic) were provided by Oravcova et al..
(§3) The minimum inhibitory concentrations (MICs) were evaluated by the microtitration broth method according to the CLSI, with some modifications. The compounds were dissolved in DMSO (Sigma, St. Louis, MO, USA) to obtain a concentration of […] and diluted in a microtitration plate in an appropriate medium, i.e., Cation-Adjusted Mueller–Hinton Broth (CaMH, Oxoid, Basingstoke, UK) for staphylococci, and Brain Heart Infusion Broth (BHI, Oxoid) for enterococci to reach the final concentration of 256–0.125 µg/mL. Microtiter plates were inoculated with test microorganisms so that the final concentration of bacterial cells was 10^5. Ampicillin, oxacillin, and ciprofloxacin (Sigma) were used as reference drugs. A drug-free control and a sterility control were included. The plates were incubated for 24 h at 37 °C for staphylococci and enterococci. […] The experiments were repeated three times.

[2] = system: methicillin-resistant S. aureus SA 3202; assay: MIC, microtitration broth method, MRSA1; assay type: cell-based; settings: Staphylococcus aureus; 24 h, 37 °C, CaMH broth
Description: as §1, §2, §3

[3] = system: methicillin-resistant S. aureus SA 630; assay: MIC, microtitration broth method, MRSA2; assay type: cell-based; settings: Staphylococcus aureus; 24 h, 37 °C, CaMH broth
Description: as §1, §2, §3

[4] = system: Enterococcus faecalis ATCC 29212; assay: MIC, microtitration broth method, EF; assay type: cell-based; settings: ATCC29212, 24 h, 37 °C, BHI broth
Description: as §1, §2, §3

[5] = system: Staphylococcus aureus ATCC 29213; assay: MBC, agar aliquot subculture method, SA; assay type: cell-based; settings: ATCC29213, 99.9% decrease in CFU, 24 h, 37 °C
Description: (§4) The activities of the individual derivatives were expressed as minimum inhibitory concentrations (MICs) and minimum bactericidal concentrations (MBCs) and are shown in Table 3 together with the values of the antibiotics used as standards for comparison. […] MBC values of bactericidal compounds are indicated in bold in Table 3.
(§5) For the above-mentioned strains/isolates, the agar aliquot subculture method was used as a test for bactericidal agents. After the MIC value determination, the inoculum was transferred to CaMH (Oxoid) for staphylococci, and BHI (Oxoid) for enterococci medium using a multipoint inoculator. The plates were incubated in a thermostat at 37 °C for 24 h. The lowest concentration of test compound at which ≤5 colonies were obtained was then evaluated as MBC, corresponding to a 99.9% decrease in CFU relative to the original inoculum.

[6] = system: methicillin-resistant S. aureus SA 3202; assay: MBC, agar aliquot subculture method, MRSA1; assay type: cell-based; settings: Staphylococcus aureus; 99.9% decrease in CFU, 24 h, 37 °C
Description: as §4, §5

[7] = system: methicillin-resistant S. aureus SA 630; assay: MBC, agar aliquot subculture method, MRSA2; assay type: cell-based; settings: Staphylococcus aureus; 99.9% decrease in CFU, 24 h, 37 °C
Description: as §4, §5

[8] = system: Enterococcus faecalis ATCC 29212; assay: MBC, agar aliquot subculture method, EF; assay type: cell-based; settings: ATCC29212, 99.9% decrease in CFU, 24 h, 37 °C
Description: as §4, §5

S. aureus ATCC 29213 = assay: MTT assay of bacterial respiratory activity; assay type: cell-based, Staphylococcus aureus; settings: S. aureus ATCC 29213
Description: The MTT assay can be used to assess cell growth by measuring respiration. Bacterial cell respiratory activity (which is ultimately reflected in their viability) of less than 70% after exposure to the MIC values for each test compound is considered as a positive result for this test. This low level of cellular oxidative metabolism indicates inhibition of cell growth by inhibition of respiration. The lowest multiples of the MIC values by which inhibition of S. aureus ATCC 29213 viability [%] greater than 70% was achieved are shown in Table 4. […] Therefore, the antibacterial activity of the discussed compounds cannot be explained solely on the basis of respiration inhibition, so it is very difficult to draw a conclusion regarding the actual mechanism of action, since 8-HQs are multi-target agents, i.e., they affect several different targets at once (as discussed in the section dedicated to anticancer activity), which subsequently leads to the death of the treated resistant microorganisms.
Compounds were prepared as previously stated and diluted in CaMH broth for S. aureus to achieve the desired final concentrations. S. aureus bacterial suspension in sterile distilled water at 0.5 McFarland was diluted 1:3. Inocula were added to each well by multi-inoculator. Diluted mycobacteria in broth free from inhibiting compounds were used as the growth control. All compounds were prepared in duplicate. Plates were incubated at 37 °C for 24 h for S. aureus. After the incubation period, 10% well volume of MTT (3-(4,5-dimethylthiazol-2-yl)-2,5-diphenyltetrazolium bromide) reagent (Sigma) was mixed into each well and incubated at 37 °C 1 h for S. aureus. Then, 100 µL of 17% sodium dodecyl sulphate in 40% dimethylformamide was added to each well. The plates were read at 570 nm. The absorbance readings from the cells grown in the presence of the tested compounds were compared with uninhibited cell growth to determine the relative percent inhibition. The percent inhibition was determined through MTT assay. The percent viability is calculated through the comparison of a measured value and that of the uninhibited control: % viability = OD570E/OD570P × 100, where OD570E is the reading from the compound-exposed cells, while OD570P is the reading from the uninhibited cells (positive control). Cytotoxic potential is determined by a percent viability of <70% [81, 82].

[9] = system: methicillin-resistant S. aureus SA 3202; set-up: method as in PMID 25692135; settings: isolate classified as vancomycin-susceptible (VA2-MRSA); ref [76]; cited from earlier work
[10] = system: methicillin-resistant S. aureus SA 630; set-up: method as in PMID 25692135; settings: isolate classified as vancomycin-susceptible (VA2-MRSA); ref [76]; cited from earlier work

MIC [4] | Conc.: lowest multiple of MIC with at least 70% inhibition of respiratory activity (S. aureus ATCC 29213) | Compound | MIC [1] | MIC [2] | MIC [3] | MBC [5] | MBC [6] | MBC [7] | MBC [8] | MIC of vancomycin, MRSA SA 3202 [9] | MIC of vancomycin, MRSA SA 630 [10]
2.81 µM (≈ 0.982 µg/mL) | 16× MIC (>16× MBC) | CC1(C)S[C@@H]2[C@H](NC(=O)[C@H](N)c3ccccc3)C(=O)N2[C@H]1C(=O)O [AMP, ampicillin, reference compound] | 5.72 µM (≈ 2 µg/mL) | > 45.8 µM | > 45.8 µM | 5.72 µM (≈ 2 µg/mL) | > 45.8 µM | > 45.8 µM | 2.81 µM (≈ 0.982 µg/mL) | – | –
– | – | Cc1onc(-c2ccccc2)c1C(=O)N[C@@H]1C(=O)N2[C@@H]1SC(C)(C)[C@@H]2C(=O)O [OXA, oxacillin, reference compound] | 1.25 µM (≈ 0.502 µg/mL) | 79.8 µM (≈ 32 µg/mL) | 29.7 µM (≈ 11.9 µg/mL) | 1.25 µM (≈ 0.502 µg/mL) | 79.8 µM (≈ 32 µg/mL) | 29.7 µM (≈ 11.9 µg/mL) | – | – | –
– | – | CN[C@H](CC(C)C)C(=O)N[C@H]1C(=O)N[C@@H](CC(N)=O)C(=O)N[C@H]2C(=O)N[C@H]3C(=O)N[C@H](C(=O)N[C@H](C(=O)O)c4cc(O)cc(O)c4-c4cc3ccc4O)[C@H](O)c3ccc(c(Cl)c3)Oc3cc2cc(c3O[C@@H]2O[C@H](CO)[C@@H](O)[C@H](O)[C@H]2O[C@H]2C[C@](C)(N)[C@H](O)[C@H](C)O2)Oc2ccc(cc2Cl)[C@H]1O [vancomycin] | – | – | – | – | – | – | – | 2 µg/mL | 2 µg/mL
